Test results: patent publication US9078442B2, “Herbicidally and fungicidally active 3-phenylisoxazoline-5-carboxamides and 3-phenylisoxazoline-5-thioamides” (BAYER INTELLECTUAL PROPERTY GMBH, priority 2011, dated 2015)

Tests used:
Botrytis cinerea = assay: In vivo test Botrytis cinerea (gray mold on cucumbers); details: Botrytis cinerea on cucumber, evaluation 5-7 days after infection
Protocol: Cucumber plants (Vert petit de Paris) are cultivated in 50/50 peat pozzolan substrate at 20-25° C. and sprayed at the Z16 stage with the active compound preparation given in Example 1. After 24 hours, the upper sides of the leaves of the plants are sprayed with a spore suspension of Botrytis cinerea (150 000 spores/ml). The spores of a 15-day old culture are collected and suspended in a nutrient solution consisting of • 20 g/l of gelatin; • 50 g/l of D-fructose; • 2 g/l of NH4NO3; • 1 g/L of KH2PO4. The inoculated cucumber plants are placed at 15-11° C. (day/night) and at 80% relative atmospheric humidity for 5-7 days.

Alternaria brassicae = assay: In vivo test Alternaria brassicae (salad radish); design: concentration or dose not given beside the values; details: Alternaria brassicae on salad radish, application rate not given, evaluation 6-7 days after inoculation
Protocol: Salad radish (cultivar Pernot) are cultivated in 50/50 peat pozzolan substrate at 18-20° C. and sprayed at the cotyledon stage with the active compound preparation given above. After 24 hours, the plants are sprayed with a spore suspension of Alternaria brassicae (40 000 spores/cm3). The inoculated plants are placed at 18° C. and in a humid atmosphere for 6-7 days. […] At an application rate of g/ha, the following efficacies are found for the following compounds.

Peronospora parasitica = assay: In vivo test Peronospora parasitica (downy mildew on cabbage), protective; details: evaluation 5 days after infection
Protocol: In vivo test Peronospora parasitica (downy mildew on cabbage) To prepare an appropriate active compound formulation, the active compound is mixed with acetone/Tween/DMSO and the mixture is diluted with water to the desired concentration. Cabbage plants are cultivated in 50/50 peat/pozzolan soil in small pots at 18-20° C. and sprayed at the cotyledon stage at the respective stated application rates to test for protective activity. Control plants were treated in the same manner, but using an aqueous solution without any active compounds. 24 hours after the spraying, the plants were sprayed with a spore suspension of Peronospora parasitica (50 000 spores/ml). The plants were placed in a cabin at 20° C. in a humid atmosphere for 5 days.

[1] = system: Mycosphaerella graminicola; assay: In vivo test Mycosphaerella graminicola (wheat); details: Mycosphaerella graminicola on wheat, evaluation 21-28 days after inoculation
Protocol: Wheat plants (cultivar: (Scipion) are cultivated in 50/50 peat pozzolan substrate at 12° C. and sprayed at the 1-leaf stage with the active compound preparation as given in Example A. After 24 hours, the plants are sprayed with a spore suspension of Mycosphaerella graminicola (500 000 spores/ml).

Sphaerotheca fuliginea = assay: In vivo test Sphaerotheca fuliginea (cucumber); details: Sphaerotheca fuliginea on cucumber, evaluation 12 days after inoculation
Protocol: Cucumber plants (cultivar: Vert petit de Paris) are cultivated in 50/50 peat pozzolan substrate at 20/23° C. and sprayed at the cotyledon stage with the active compound preparation given in Example A. After 24 hours, the plants are sprayed with a spore suspension of Sphaerotheca fuliginea (100 000 spores/ml).

Phytophthora infestans = format: in vivo; details: Phytophthora infestans on tomato, application rate 1200 g/ha, evaluation 5 days after infection
Leptosphaeria nodorum = assay: In vivo test Leptosphaeria nodorum (wheat); details: Leptosphaeria nodorum on wheat, application rate 1200 g/ha, evaluation 15-17 days after inoculation
Protocol: Wheat plants (cultivar: (Scipion) are cultivated in 50/50 peat pozzolan substrate at 12° C. and sprayed at the 1-leaf stage with the active compound preparation as given in Example A. After 24 hours, the plants are sprayed with a spore suspension of Leptosphaeria nodorum (250 000 spores/ml).

Row | Compound | Activity [%] (efficacy) (Peronospora parasitica; application rate 1200 g/ha) | Activity [%] (efficacy) ([1]; application rate 500 g/ha) | Activity [%] (efficacy) (Peronospora parasitica; application rate 500 g/ha) | Activity [%] (efficacy) (Phytophthora infestans) | further results
1 | CCC(C)NC(=O)C1(C)CC(c2cc(Cl)cc(Cl)c2)=NO1 (mixture of isomers) [Example 6.217] | 100% | – | – | – | Activity [%] (efficacy) (Botrytis cinerea; application rate 1200 g/ha): 100%; Activity [%] (efficacy) (Alternaria brassicae): 81%
2 | Cc1c(NC(=O)C2(C)CC(c3cc(F)cc(F)c3)=NO2)cnn1C (centres unmarked) [Example 1.007] | – | 73% | – | – | Activity [%] (efficacy) (Sphaerotheca fuliginea; application rate 500 g/ha): 75%
3 | Cc1cc(CNC(=O)C2(C)CC(c3cc(Cl)cc(Cl)c3)=NO2)n(C)n1 (centres unmarked) [Example 1.122] | – | 75% | 100% | – | Activity [%] (efficacy) (Sphaerotheca fuliginea; application rate 500 g/ha): 72%
4 | CCn1cc(CNC(=O)C2(C)CC(c3cc(C)cc(C)c3)=NO2)c(C)n1 (centres unmarked) [Example 1.194] | 100% | – | – | 100% | Activity [%] (efficacy) (Botrytis cinerea; application rate 1200 g/ha): 95%; Activity [%] (efficacy) ([1]; application rate 1200 g/ha): 88%
5 | CCn1cc(CNC(=O)C2(C)CC(c3cccc(Cl)c3)=NO2)c(C)n1 (centres unmarked) [Example 1.195] | 100% | 79% | – | 100% | –
6 | CCn1cc(CNC(=O)C2(C)CC(c3cc(F)cc(Cl)c3)=NO2)c(C)n1 (centres unmarked) [Example 1.197] | 100% | – | – | 100% | Activity [%] (efficacy) (Sphaerotheca fuliginea; application rate 1200 g/ha): 100%
7 | CCn1cc(CNC(=O)C2(C)CC(c3cc(Cl)cc(Cl)c3)=NO2)c(C)n1 (centres unmarked) [Example 1.222] | – | – | 100% | 100% | Activity [%] (efficacy) ([1]; application rate 1200 g/ha): 96%
8 | Cn1cc(CNC(=O)C2(C)CC(c3cc(Cl)cc(Cl)c3)=NO2)cn1 (centres unmarked) [Example 1.285] | – | 75% | 100% | – | Activity [%] (efficacy) (Sphaerotheca fuliginea; application rate 500 g/ha): 89%
9 | CCCn1cc(CNC(=O)C2(C)CC(c3cc(Cl)cc(Cl)c3)=NO2)c(C)n1 (centres unmarked) [Example 1.374] | 100% | – | – | 100% | Activity [%] (efficacy) (Botrytis cinerea; application rate 1200 g/ha): 98%; Activity [%] (efficacy) (Sphaerotheca fuliginea; application rate 1200 g/ha): 99%
10 | CCn1cc(CNC(=O)C2(CC)CC(c3cc(Cl)cc(Cl)c3)=NO2)cn1 (centres unmarked) [Example 2.136] | 100% | – | – | 90% | Activity [%] (efficacy) ([1]; application rate 1200 g/ha): 88%
11 | CCn1cc(CNC(=O)C2(C3CC3)CC(c3cc(Cl)cc(Cl)c3)=NO2)c(C)n1 (centres unmarked) [Example 5.018] | – | – | 100% | 75% | Activity [%] (efficacy) ([1]; application rate 1200 g/ha): 88%
12 | COCCCCNC(=O)C1(C)CC(c2cc(Cl)cc(Cl)c2)=NO1 (centres unmarked) [Example 6.006] | 100% | – | – | 70% | Activity [%] (efficacy) (Leptosphaeria nodorum): 100%
13 | CC(C)(C)NC(=O)C1(C)CC(c2cc(Cl)cc(Cl)c2)=NO1 (centres unmarked) [Example 6.117, N-tert-butyl-3-(3,5-dichlorophenyl)-5-methyl-4,5-dihydro-1,2-oxazole-5-carboxamide] | – | 91% | 92% | – | Activity [%] (efficacy) (Alternaria brassicae): 73%
14 | CC(C)NC(=O)C1(C)CC(c2cc(Cl)cc(Cl)c2)=NO1 (centres unmarked) [Example 6.165] | – | 100% | 95% | – | Activity [%] (efficacy) (Botrytis cinerea; application rate 500 g/ha): 93%; Activity [%] (efficacy) (Alternaria brassicae): 95%
15 | CC(C)NC(=O)C1(C)CC(c2cccc(N)c2)=NO1 (centres unmarked) [Example 6.183] | – | – | – | – | Activity [%] (efficacy) (Sphaerotheca fuliginea; application rate 500 g/ha): 98%
16 | CC(C)NC(=O)C1(C)CC(c2cc(Cl)cc(C(F)(F)F)c2)=NO1 (centres unmarked) [Example 6.188] | – | 100% | – | – | Activity [%] (efficacy) (Botrytis cinerea; application rate 500 g/ha): 86%; Activity [%] (efficacy) (Alternaria brassicae): 73%
17 | CC(C)NC(=O)C1(C)CC(c2cc(Cl)cc(OCC(F)(F)F)c2)=NO1 (centres unmarked) [Example 6.193] | – | 95% | – | – | Activity [%] (efficacy) (Sphaerotheca fuliginea; application rate 500 g/ha): 85%
18 | CC1(C(=O)NCC2CC2)CC(c2cc(Cl)cc(Cl)c2)=NO1 (centres unmarked) [Example 6.431] | – | 100% | 71% | – | Activity [%] (efficacy) (Alternaria brassicae): 77%
